In brackets after ≈: the same amount, converted by molar mass.
Tests used:
Aspergillus flavus [1] = experiment: Antifungal activity against Aspergillus flavus at 1000 ug/mL after 72 hrs by agar diffusion assay; format: functional; settings: read-out: IZ
Candida albicans [2] = experiment: Antifungal activity against Candida albicans by liquid dilution method; format: functional
Aspergillus flavus [3] = experiment: Antifungal activity against Aspergillus flavus by liquid dilution method; format: functional
Staphylococcus aureus [4] = experiment: Antibacterial activity against Staphylococcus aureus by liquid dilution method; format: functional
Streptococcus pyogenes [5] = experiment: Antibacterial activity against Streptococcus pyogenes at 1000 ug/mL after 72 hrs by agar diffusion assay; format: functional; settings: read-out: IZ
Aspergillus niger [6] = experiment: Antifungal activity against Aspergillus niger by liquid dilution method; format: functional
Aspergillus niger [7] = experiment: Antifungal activity against Aspergillus niger at 1000 ug/mL after 72 hrs by agar diffusion assay; format: functional; settings: read-out: IZ
Klebsiella pneumoniae [8] = experiment: Antibacterial activity against Klebsiella pneumoniae at 1000 ug/mL after 72 hrs by agar diffusion assay; format: functional; settings: read-out: IZ
Klebsiella pneumoniae [9] = experiment: Antibacterial activity against Klebsiella pneumoniae by liquid dilution method; format: functional
Streptococcus pyogenes [10] = experiment: Antibacterial activity against Streptococcus pyogenes by liquid dilution method; format: functional
Bacillus subtilis [11] = experiment: Antibacterial activity against Bacillus subtilis at 1000 ug/mL after 72 hrs by agar diffusion assay; format: functional; settings: read-out: IZ
Bacillus subtilis [12] = experiment: Antibacterial activity against Bacillus subtilis by liquid dilution method; format: functional
Escherichia coli [13] = experiment: Antibacterial activity against Escherichia coli by liquid dilution method; format: functional
Salmonella typhimurium [14] = experiment: Antibacterial activity against Salmonella Typhimurium at 1000 ug/mL after 72 hrs by agar diffusion assay; format: functional, Salmonella enterica subsp. enterica serovar Typhimurium; settings: Salmonella enterica, read-out: IZ
Candida albicans [15] = experiment: Antifungal activity against Candida albicans at 1000 ug/mL after 72 hrs by agar diffusion assay; format: functional; settings: read-out: IZ
Salmonella typhimurium [16] = experiment: Antibacterial activity against Salmonella Typhimurium by liquid dilution method; format: functional, Salmonella enterica subsp. enterica serovar Typhimurium; settings: Salmonella enterica
Escherichia coli [17] = experiment: Antibacterial activity against Escherichia coli at 1000 ug/mL after 72 hrs by agar diffusion assay; format: functional; settings: read-out: IZ
Staphylococcus aureus [18] = experiment: Antibacterial activity against Staphylococcus aureus at 1000 ug/mL after 72 hrs by agar diffusion assay; format: functional; settings: read-out: IZ

Structure (SMILES)	zone of inhibition at 1000 µg/mL (Aspergillus flavus [1]) [mm]	MIC (Candida albicans [2]) [µg/mL]	MIC (Aspergillus flavus [3]) [µg/mL]	MIC (Staphylococcus aureus [4]) [µg/mL]	zone of inhibition at 1000 µg/mL (Streptococcus pyogenes [5]) [mm]	MIC (Aspergillus niger [6]) [µg/mL]	zone of inhibition at 1000 µg/mL (Aspergillus niger [7]) [mm]	zone of inhibition at 1000 µg/mL (Klebsiella pneumoniae [8]) [mm]	MIC (Klebsiella pneumoniae [9]) [µg/mL]	MIC (Streptococcus pyogenes [10]) [µg/mL]	zone of inhibition at 1000 µg/mL (Bacillus subtilis [11]) [mm]	MIC (Bacillus subtilis [12]) [µg/mL]	MIC (Escherichia coli [13]) [µg/mL]	zone of inhibition at 1000 µg/mL (Salmonella typhimurium [14]) [mm]	zone of inhibition at 1000 µg/mL (Candida albicans [15]) [mm]	MIC (Salmonella typhimurium [16]) [µg/mL]	zone of inhibition at 1000 µg/mL (Escherichia coli [17]) [mm]	zone of inhibition at 1000 µg/mL (Staphylococcus aureus [18]) [mm]
O=c1oc2c(Br)cc(Br)cc2cc1-c1nc2ccccc2c2nc3ccccc3n12	46	15 (≈ 28.8 µM)	15 (≈ 28.8 µM)	40 (≈ 76.8 µM)	36	20 (≈ 38.4 µM)	48	38	35 (≈ 67.2 µM)	20 (≈ 38.4 µM)	34	50 (≈ 95.9 µM)	15 (≈ 28.8 µM)	36	41	30 (≈ 57.6 µM)	41	39
O=c1oc2c(Br)cccc2cc1-c1nc2ccccc2c2nc3c4nsnc4ccc3n12	33	35 (≈ 70 µM)	50 (≈ 99.9 µM)	30 (≈ 60 µM)	23	35 (≈ 70 µM)	31	30	25 (≈ 50 µM)	40 (≈ 79.9 µM)	29	40 (≈ 79.9 µM)	35 (≈ 70 µM)	29	29	35 (≈ 70 µM)	31	35
O=c1oc2c(Cl)cc(Cl)cc2cc1-c1nc2ccccc2c2nc3c4nsnc4ccc3n12	29	45 (≈ 91.8 µM)	50 (≈ 102 µM)	35 (≈ 71.4 µM)	20	40 (≈ 81.6 µM)	33	34	35 (≈ 71.4 µM)	35 (≈ 71.4 µM)	34	45 (≈ 91.8 µM)	30 (≈ 61.2 µM)	31	26	25 (≈ 51 µM)	32	39
O=c1oc2ccc([N+](=O)[O-])cc2cc1-c1nc2ccccc2c2nc3c4nsnc4ccc3n12	44	30 (≈ 64.3 µM)	25 (≈ 53.6 µM)	35 (≈ 75 µM)	29	35 (≈ 75 µM)	36	27	45 (≈ 96.5 µM)	30 (≈ 64.3 µM)	30	45 (≈ 96.5 µM)	35 (≈ 75 µM)	29	38	35 (≈ 75 µM)	31	27
O=c1oc2c(Br)cccc2cc1-c1nc2ccccc2c2nc3ccccc3n12	45	40 (≈ 90.4 µM)	10 (≈ 22.6 µM)	40 (≈ 90.4 µM)	27	40 (≈ 90.4 µM)	37	31	25 (≈ 56.5 µM)	35 (≈ 79.1 µM)	28	40 (≈ 90.4 µM)	45 (≈ 102 µM)	29	32	35 (≈ 79.1 µM)	28	39
Cc1cccc2cc(-c3nc4ccccc4c4nc5ccccc5n34)c(=O)oc12	35	45 (≈ 119 µM)	35 (≈ 92.7 µM)	30 (≈ 79.5 µM)	24	50 (≈ 132 µM)	27	31	30 (≈ 79.5 µM)	45 (≈ 119 µM)	30	45 (≈ 119 µM)	40 (≈ 106 µM)	35	32	20 (≈ 53 µM)	32	32
O=c1oc2c(Cl)cc(Cl)cc2cc1-c1nc2ccccc2c2nc3ccccc3n12	38	50 (≈ 116 µM)	35 (≈ 81 µM)	2.5 (≈ 5.78 µM)	38	35 (≈ 81 µM)	38	47	5 (≈ 11.6 µM)	10 (≈ 23.1 µM)	42	10 (≈ 23.1 µM)	10 (≈ 23.1 µM)	48	39	2.5 (≈ 5.78 µM)	44	50
O=c1oc2c(Br)cc(Br)cc2cc1-c1nc2ccccc2c2nc3c4nsnc4ccc3n12	37	40 (≈ 69.1 µM)	35 (≈ 60.4 µM)	5 (≈ 8.63 µM)	37	25 (≈ 43.2 µM)	34	46	5 (≈ 8.63 µM)	15 (≈ 25.9 µM)	41	10 (≈ 17.3 µM)	10 (≈ 17.3 µM)	45	32	2.5 (≈ 4.32 µM)	42	48
O=c1oc2ccccc2cc1-c1nc2ccccc2c2nc3c4nsnc4ccc3n12	35	45 (≈ 107 µM)	35 (≈ 83 µM)	50 (≈ 119 µM)	22	40 (≈ 94.9 µM)	22	27	35 (≈ 83 µM)	45 (≈ 107 µM)	32	50 (≈ 119 µM)	45 (≈ 107 µM)	24	26	30 (≈ 71.2 µM)	26	31
O=c1oc2ccc([N+](=O)[O-])cc2cc1-c1nc2ccccc2c2nc3ccccc3n12	30	50 (≈ 122 µM)	45 (≈ 110 µM)	35 (≈ 85.7 µM)	28	45 (≈ 110 µM)	29	29	40 (≈ 97.9 µM)	40 (≈ 97.9 µM)	27	10 (≈ 24.5 µM)	30 (≈ 73.5 µM)	32	27	25 (≈ 61.2 µM)	35	24
O=c1oc2ccccc2cc1-c1nc2ccccc2c2nc3ccccc3n12	32	35 (≈ 96.3 µM)	40 (≈ 110 µM)	35 (≈ 96.3 µM)	23	25 (≈ 68.8 µM)	34	34	30 (≈ 82.6 µM)	30 (≈ 82.6 µM)	31	45 (≈ 124 µM)	25 (≈ 68.8 µM)	32	27	25 (≈ 68.8 µM)	38	36
Cc1cccc2cc(-c3nc4ccccc4c4nc5c6nsnc6ccc5n34)c(=O)oc12	33	35 (≈ 80.4 µM)	40 (≈ 91.9 µM)	40 (≈ 91.9 µM)	24	50 (≈ 115 µM)	28	32	25 (≈ 57.4 µM)	45 (≈ 103 µM)	26	50 (≈ 115 µM)	45 (≈ 103 µM)	29	30	30 (≈ 68.9 µM)	20	29
CC1(C)S[C@@H]2[C@H](NC(=O)[C@H](N)c3ccccc3)C(=O)N2[C@H]1C(=O)O [AMPICILLIN]	–	–	–	10 (≈ 28.6 µM)	35	–	–	45	10 (≈ 28.6 µM)	25 (≈ 71.5 µM)	39	20 (≈ 57.2 µM)	15 (≈ 42.9 µM)	45	–	10 (≈ 28.6 µM)	40	48
CC(=O)N1CCN(c2ccc(OCC3COC(Cn4ccnc4)(c4ccc(Cl)cc4Cl)O3)cc2)CC1 (centres undefined) [KETOCONAZOLE]	43	25 (≈ 47 µM)	15 (≈ 28.2 µM)	–	–	15 (≈ 28.2 µM)	45	–	–	–	–	–	–	–	40	–	–	–

From ChEMBL document CHEMBL1641588, “3-[Benzimidazo- and 3-[benzothiadiazoleimidazo-(1,2-c)quinazolin-5-yl]-2H-chromene-2-ones as potent antimicrobial agents” (2011)
